Source: patent US9364479B2, “Use of a receptor-type kinase modulator for treating polycystic kidney disease” (SYMPHONY EVOLUTION, INC., priority 2010, dated 2016)
Like-named read-outs stand apart in the source and are kept apart here.

How the values were obtained:
BALB/C mice = settings: mouse, in vivo
EGFR = target: T1, EGFR (Homo sapiens, UniProt P00533); assay: Mechanism of action study / Ki determination; format: biochemical
T1 construct: residues H672-A1210 of human EGFR, Proqinase; purchased Proqinase
Protocol: Enzymatic activity was measured by standard methods after dilution of the enzyme-inhibitor complex.

[1] = system: Adrenergic, Alpha 2, Non-selective; assay: NovaScreen assay; format: binding
GABA-B = target: T2, GABA-B (Homo sapiens, UniProt Q9UBS5); assay: NovaScreen assay; format: binding; settings: read-out: Inhibition, 10 μM XL-647
T2 construct: NovaScreen

[2] = system: Muscarinic, Non-selective, Central; assay: NovaScreen assay; format: binding
[3] = target: T3, Norepinephrine Transporter (Homo sapiens, UniProt P23975); assay: NovaScreen assay; format: binding; settings: read-out: Inhibition, 10 μM XL-647
T3 construct: NovaScreen

Serotonin Transporter = target: T4, Serotonin Transporter (Homo sapiens, UniProt P31645); assay: NovaScreen assay; format: binding
T4 construct: NovaScreen

[4] = system: Calcium Channel, Type L (Dihydropyridine Site); assay: NovaScreen assay; format: binding
Calcium Channel, Type N = target: T5, Calcium Channel, Type N (Homo sapiens, UniProt Q00975); assay: NovaScreen assay; format: binding; settings: read-out: Inhibition, 10 μM XL-647
T5 construct: NovaScreen

[5] = target: T6, Cholecystokinin, CCK1 (CCKA) (Homo sapiens, UniProt P32238); assay: NovaScreen assay; format: binding; settings: read-out: Inhibition, 10 μM XL-647
T6 construct: NovaScreen

[6] = system: Glutamic Acid Decarboxylase; assay: NovaScreen assay; format: biochemical
EMK = target: T7, EMK (Homo sapiens, UniProt Q7KZI7); assay: Chemiluminescent kinase assay; format: biochemical
T7 construct: His6 (N)
Protocol: (§1) Further screening was performed using the biochemical assay methods of Example 2. Additional description of the components and concentrations are summarized in Table 8, Table 9, and Table 10, below.

GSK3β = target: T8, GSK3β (Homo sapiens, UniProt P49841); assay: Chemiluminescent kinase assay; format: biochemical
T8 construct: His6 (N); purchased Upstate Biotechnology
Protocol: as §1

MAP4K3 = target: T9, MAP4K3 (Homo sapiens, UniProt Q8IVH8); assay: Chemiluminescent kinase assay; format: biochemical
T9 construct: Kinase domain,; His6 (N)
Protocol: as §1

EphB4 = target: T10, EphB4 (Homo sapiens, UniProt P54760); assay: EphB4 autophosphorylation ELISA, EphB4/Hep3B cells; format: cell-based; settings: read-out: Cellular IC50, autophosphorylation
T10 construct: expressed in transfected cells; host or cells: Hep3B
Protocol: The EphB4 autophosphorylation ELISA utilized EphB4/Hep3B cells. Cells were seeded at 2×10^4 cells/well onto 96-well microtiter plates (Costar 3904), in MEME (Cellgro) containing 10% FBS (Heat-Inactivated, Hyclone), 1% penicillin-streptomycin (Cellgro) and 450 μg/ml G418 (Invitrogen). The cells were then incubated at 37° C., 5% CO2 for 24 h. Growth media was replaced with serum-free MEME and cells were incubated for an additional 16 h. […] Negative control wells were not treated with growth factor. Following treatment, media was removed, the cell monolayer washed with cold PBS and immediately lysed with cold lysis buffer (50 mM Tris-HCl, pH 8.0, 200 mM NaCl, 0.5% NP-40, 0.2% sodium deoxcholate, 1 mM EDTA, 50 mM NaF, 1 mM sodium pyrophosphate, 1 mM sodium orthovanadate, 2 mM phenylmethylsulfonyl fluoride, 10 μg/ml aprotinin, 5 μg/ml leupeptin and 5 μg/ml pepstatin A). Lysates were centrifuged and incubated in blocked (1% BSA) high-binding 96-well plates (Costar 3925) coated with anti-mouse EphB4 (2.5 μg/ml, R&D Systems). Plates were then incubated with HRP-conjugated anti-phosphotyrosine cocktail (1:10,000, Zymed Laboratories, Inc) followed by the addition of a luminol-based substrate solution. Plates were read using a Victor spectrophotometer (Wallac).

ErbB2 = ErbB2 (Homo sapiens, UniProt P04626); assay: ErbB2 autophosphorylation ELISA, BT474 cells; format: cell-based; settings: read-out: Cellular IC50, autophosphorylation
Protocol: The ErbB2 autophosphorylation ELISA utilized BT474 (ATCC) cells. Cells were seeded at 3×10^4 cells/well into 96-well microtiter plates (Costar 3904), in 1:1(DMEM:F12K) (Cellgro) containing 10% FBS (Heat-Inactivated, Hyclone), 1% penicillin-streptomycin (Cellgro), 1% NEAA solution (Cellgro), and 2% L-Glutamine (Cellgro). The cells were then incubated at 37° C., 5% CO2 for 40 hr. […] Following treatment, media was removed, the cell monolayer was washed with cold PBS and immediately lysed with cold lysis buffer. Lysates were centrifuged and transferred into blocked (1% BSA) 96-well high-binding plates (Costar 3925) coated with rabbit polyclonal anti-ErbB2 (1.3 μg/ml, Cell Signaling Technology). Plates were then incubated with HRP-conjugated, anti-phosphotyrosine cocktail (1:10,000, Zymed Laboratories, Inc), followed by the addition of a luminol-based substrate solution. Plates were read with a Victor spectrophotometer (Wallac). IC50 values were determined based on total ErbB2 tyrosine phosphorylation with compound treatment versus total ErbB2 tyrosine phosphorylation with no compound treatment.

[7] = target: T11, EGFR phosphorylation (H1975 cells) (Homo sapiens, UniProt P00533, L858R/T790M); assay: Immunoblot analysis of H1975 cell lysates; format: cell-based
T11 construct: host or cells: H1975 (cultured cells; s.c. xenografts in mice)
Protocol: For the H1975 immunoblot studies, 3×10^5 cells were plated in each well (12-well plate) and incubated for 16 h in complete RPMI 1640, rinsed with fetal bovine serum-free RPMI 1640, and incubated with serial dilutions of test compounds in fetal bovine serum-free medium for 2 h followed by stimulation with 100 ng/mL human recombinant EGF for 10 min. Whole-cell protein lysates were prepared as described above and centrifuged for 10 min at 13,000×g at 4° C. to remove any insoluble material. Total protein was determined using bicinchoninic acid reagent and an equal amount of protein was combined with LDS loading buffer (Invitrogen) according to the manufacturer's instructions. Proteins were separated by gel electrophoresis on 4% to 15% polyacrylamide gels, transferred to nitrocellulose membranes, and detected by immunoblotting. Antibody:antigen complexes were detected using chemiluminescence. The following antibodies from Cell Signaling Technology were used at a 1:1,000 dilution: anti-EGFR, anti-pEGFR^Tyr1068, anti-AKT, anti-pAKT^Ser473, anti-ERK, and anti-pERK^Thr202/Tyr204. The anti-β-actin primary antibody (Accurate Chemical and Scientific) was used at 1:10,000 and the horseradish peroxidase-coupled secondary antibodies were purchased from Jackson ImmunoResearch and used at 1:5,000.

p-Y-EGFR = p-Y-EGFR (Homo sapiens, UniProt P00533); assay: In vivo receptor phosphorylation, A431 xenografts; parameters: species or system mouse
[8] = human
[9] = human, in vivo
EGFR L861Q (pCMV/Lx-1) = EGFR L861Q (pCMV/Lx-1) (Homo sapiens, UniProt P00533, L861Q); assay: EGFR phosphorylation ELISA in transfected Lx-1 cells
Excerpt: Lx-1 cells were used because they lack background EGFR activity. A clone corresponding to the longest EGFR isoform (Genbank accession no. NM_005228.3/NP_005219.2 #21-176, Upstate Biotechnology) was used as a template to produce two mutant EGFR genes (coding for L858R and L861Q) by site-directed mutagenesis. The WT and the two sequence-verified mutants were transferred to a COOH-terminal Flag-tagged retroviral cytomegalovirus promoter-driven mammalian expression vector. The two Tet-On expression vectors, EGFR WT (Tet-On) and EGFRvIII (Tet-On), which were COOH-terminally Flag tagged, were generously provided by Dr. Abhijit Guha (University of Toronto, Toronto, Ontario, Canada).
Transient transfections of Lx-1 cells were done using Lipofectamine 2000 (Invitrogen) according to the manufacturer's protocol. For transfections of the WT, L858R, and L861Q constructs, 1 μg plasmid DNA was used for each transfection (each well of a 12-well plate). […]
For the EGFR phosphorylation ELISA, Reacti-Bind streptavidin-coated plates (Pierce) were coated with 2 μg/mL biotin-conjugated anti-Flag antibody (Sigma). […] Horseradish peroxidase activity was determined by reading the plates in a Victor2 plate reader following addition of the ELISA Femto substrate.

T4 sequence (P31645 whole entry): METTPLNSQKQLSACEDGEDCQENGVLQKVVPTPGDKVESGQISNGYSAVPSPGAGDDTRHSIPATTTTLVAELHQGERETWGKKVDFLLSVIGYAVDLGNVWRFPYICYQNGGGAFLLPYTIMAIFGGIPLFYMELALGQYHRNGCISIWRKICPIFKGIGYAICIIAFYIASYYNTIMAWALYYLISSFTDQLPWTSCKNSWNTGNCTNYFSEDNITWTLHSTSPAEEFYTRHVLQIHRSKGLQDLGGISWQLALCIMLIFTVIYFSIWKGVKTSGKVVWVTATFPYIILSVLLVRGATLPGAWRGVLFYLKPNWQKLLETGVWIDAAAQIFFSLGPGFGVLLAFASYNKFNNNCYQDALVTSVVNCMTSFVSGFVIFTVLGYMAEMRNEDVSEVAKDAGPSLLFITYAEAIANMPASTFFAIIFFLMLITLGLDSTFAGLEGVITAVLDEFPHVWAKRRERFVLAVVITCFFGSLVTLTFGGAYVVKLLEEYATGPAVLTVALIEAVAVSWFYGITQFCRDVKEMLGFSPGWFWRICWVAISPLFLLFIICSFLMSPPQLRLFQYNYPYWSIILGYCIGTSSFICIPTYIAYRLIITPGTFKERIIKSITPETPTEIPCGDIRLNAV
T7 sequence (Q7KZI7 whole entry): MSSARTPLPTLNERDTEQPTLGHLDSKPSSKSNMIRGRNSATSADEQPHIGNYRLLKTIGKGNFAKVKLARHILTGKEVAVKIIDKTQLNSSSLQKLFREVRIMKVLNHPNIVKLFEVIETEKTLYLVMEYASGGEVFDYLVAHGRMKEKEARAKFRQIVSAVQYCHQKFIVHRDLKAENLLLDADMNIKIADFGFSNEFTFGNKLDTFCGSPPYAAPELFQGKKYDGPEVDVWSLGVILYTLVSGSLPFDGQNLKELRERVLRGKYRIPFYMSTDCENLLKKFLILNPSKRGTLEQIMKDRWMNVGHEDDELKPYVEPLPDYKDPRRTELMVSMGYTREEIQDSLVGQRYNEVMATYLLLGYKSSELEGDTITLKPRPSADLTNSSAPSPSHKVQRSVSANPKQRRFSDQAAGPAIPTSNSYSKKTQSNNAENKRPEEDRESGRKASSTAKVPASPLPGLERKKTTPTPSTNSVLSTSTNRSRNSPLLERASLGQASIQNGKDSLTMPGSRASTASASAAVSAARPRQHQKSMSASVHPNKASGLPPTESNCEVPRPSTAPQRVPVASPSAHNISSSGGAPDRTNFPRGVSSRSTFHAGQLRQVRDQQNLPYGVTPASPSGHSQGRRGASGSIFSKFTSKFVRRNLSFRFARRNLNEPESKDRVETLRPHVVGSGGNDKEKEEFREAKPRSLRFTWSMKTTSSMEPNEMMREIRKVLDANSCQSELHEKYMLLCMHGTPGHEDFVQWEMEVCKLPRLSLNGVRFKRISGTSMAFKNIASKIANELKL
T2 sequence (Q9UBS5 15-961 limits assumed): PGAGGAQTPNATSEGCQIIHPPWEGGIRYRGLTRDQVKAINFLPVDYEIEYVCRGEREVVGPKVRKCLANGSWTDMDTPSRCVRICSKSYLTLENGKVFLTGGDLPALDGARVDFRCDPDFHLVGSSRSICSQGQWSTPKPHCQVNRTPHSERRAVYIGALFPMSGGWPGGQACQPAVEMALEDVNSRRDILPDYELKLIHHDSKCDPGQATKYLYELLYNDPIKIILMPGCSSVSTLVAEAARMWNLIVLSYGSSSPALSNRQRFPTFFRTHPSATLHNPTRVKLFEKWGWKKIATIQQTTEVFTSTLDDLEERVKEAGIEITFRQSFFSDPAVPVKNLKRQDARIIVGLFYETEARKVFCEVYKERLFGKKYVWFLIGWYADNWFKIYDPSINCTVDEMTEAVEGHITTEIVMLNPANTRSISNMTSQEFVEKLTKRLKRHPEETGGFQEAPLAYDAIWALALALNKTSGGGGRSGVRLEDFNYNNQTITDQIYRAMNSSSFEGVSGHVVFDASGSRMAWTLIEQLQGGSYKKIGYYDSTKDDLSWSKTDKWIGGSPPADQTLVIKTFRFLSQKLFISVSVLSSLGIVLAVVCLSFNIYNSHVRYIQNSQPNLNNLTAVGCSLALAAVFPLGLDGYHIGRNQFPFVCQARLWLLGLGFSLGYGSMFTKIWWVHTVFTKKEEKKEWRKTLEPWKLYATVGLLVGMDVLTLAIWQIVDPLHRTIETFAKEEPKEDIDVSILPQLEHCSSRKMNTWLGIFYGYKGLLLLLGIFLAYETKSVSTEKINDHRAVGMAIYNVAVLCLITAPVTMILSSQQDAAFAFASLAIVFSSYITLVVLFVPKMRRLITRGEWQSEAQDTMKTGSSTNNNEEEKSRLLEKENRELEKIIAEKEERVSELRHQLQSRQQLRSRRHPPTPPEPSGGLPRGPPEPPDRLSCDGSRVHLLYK
T2 sequence (O75899 42-941 partner): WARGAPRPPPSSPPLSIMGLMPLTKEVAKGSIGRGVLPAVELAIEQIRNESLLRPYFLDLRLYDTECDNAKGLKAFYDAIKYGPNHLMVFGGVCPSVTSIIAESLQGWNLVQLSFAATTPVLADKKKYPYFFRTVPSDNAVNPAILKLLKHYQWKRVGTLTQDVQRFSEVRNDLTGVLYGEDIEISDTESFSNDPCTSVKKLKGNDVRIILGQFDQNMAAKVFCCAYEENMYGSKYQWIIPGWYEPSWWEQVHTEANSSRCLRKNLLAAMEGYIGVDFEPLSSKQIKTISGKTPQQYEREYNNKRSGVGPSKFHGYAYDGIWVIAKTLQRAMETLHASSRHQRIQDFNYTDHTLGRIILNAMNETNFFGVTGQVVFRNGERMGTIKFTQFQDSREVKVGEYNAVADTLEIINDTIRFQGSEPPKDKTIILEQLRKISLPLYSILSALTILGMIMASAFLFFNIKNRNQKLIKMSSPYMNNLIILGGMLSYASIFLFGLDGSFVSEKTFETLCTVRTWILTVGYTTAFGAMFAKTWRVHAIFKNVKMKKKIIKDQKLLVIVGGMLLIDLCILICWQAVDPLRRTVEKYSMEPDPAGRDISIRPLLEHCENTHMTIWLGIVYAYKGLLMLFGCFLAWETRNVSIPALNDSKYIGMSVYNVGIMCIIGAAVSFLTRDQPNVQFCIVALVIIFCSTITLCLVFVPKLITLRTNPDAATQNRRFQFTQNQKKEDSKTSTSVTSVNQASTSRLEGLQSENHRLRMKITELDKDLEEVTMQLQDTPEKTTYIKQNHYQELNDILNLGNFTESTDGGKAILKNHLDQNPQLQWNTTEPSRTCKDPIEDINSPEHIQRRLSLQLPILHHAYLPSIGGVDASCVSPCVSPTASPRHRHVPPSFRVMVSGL
T8 sequence (P49841 whole entry): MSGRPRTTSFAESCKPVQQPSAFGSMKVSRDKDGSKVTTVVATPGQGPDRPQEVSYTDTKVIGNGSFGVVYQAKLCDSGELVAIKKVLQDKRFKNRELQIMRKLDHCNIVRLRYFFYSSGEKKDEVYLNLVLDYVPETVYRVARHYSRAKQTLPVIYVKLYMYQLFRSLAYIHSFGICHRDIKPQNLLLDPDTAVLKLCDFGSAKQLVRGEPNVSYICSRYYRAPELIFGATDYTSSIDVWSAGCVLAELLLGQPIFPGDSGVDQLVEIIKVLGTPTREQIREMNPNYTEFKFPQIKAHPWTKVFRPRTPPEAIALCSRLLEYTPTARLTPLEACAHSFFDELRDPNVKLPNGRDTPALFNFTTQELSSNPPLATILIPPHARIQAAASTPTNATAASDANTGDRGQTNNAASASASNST
T10 sequence (P54760 16-987): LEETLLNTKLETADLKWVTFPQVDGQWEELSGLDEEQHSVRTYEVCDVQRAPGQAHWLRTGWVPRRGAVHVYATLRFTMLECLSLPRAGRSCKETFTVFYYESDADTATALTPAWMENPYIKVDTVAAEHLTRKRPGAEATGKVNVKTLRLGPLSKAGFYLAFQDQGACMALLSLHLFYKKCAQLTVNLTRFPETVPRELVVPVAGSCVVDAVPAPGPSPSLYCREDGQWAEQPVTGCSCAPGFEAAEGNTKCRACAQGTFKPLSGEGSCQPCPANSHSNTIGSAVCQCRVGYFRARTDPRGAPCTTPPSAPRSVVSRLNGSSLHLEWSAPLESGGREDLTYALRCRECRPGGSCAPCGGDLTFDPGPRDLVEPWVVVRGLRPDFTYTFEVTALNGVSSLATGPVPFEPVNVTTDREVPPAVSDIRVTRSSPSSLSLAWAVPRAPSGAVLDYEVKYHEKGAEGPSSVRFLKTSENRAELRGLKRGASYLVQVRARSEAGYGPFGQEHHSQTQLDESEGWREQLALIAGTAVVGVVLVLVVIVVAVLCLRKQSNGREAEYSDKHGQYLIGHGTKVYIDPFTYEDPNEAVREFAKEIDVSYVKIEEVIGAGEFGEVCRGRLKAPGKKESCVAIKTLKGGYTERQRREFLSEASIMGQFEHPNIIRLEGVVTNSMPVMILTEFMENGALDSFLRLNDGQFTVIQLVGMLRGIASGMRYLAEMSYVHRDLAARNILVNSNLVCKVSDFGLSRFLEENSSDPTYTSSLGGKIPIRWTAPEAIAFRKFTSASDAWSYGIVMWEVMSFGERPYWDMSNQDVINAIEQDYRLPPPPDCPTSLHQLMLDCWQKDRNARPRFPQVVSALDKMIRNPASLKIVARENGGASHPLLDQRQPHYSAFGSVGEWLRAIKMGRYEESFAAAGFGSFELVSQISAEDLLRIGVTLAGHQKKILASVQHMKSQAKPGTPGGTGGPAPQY
T9 sequence (Q8IVH8 16-273 limits assumed, species assumed): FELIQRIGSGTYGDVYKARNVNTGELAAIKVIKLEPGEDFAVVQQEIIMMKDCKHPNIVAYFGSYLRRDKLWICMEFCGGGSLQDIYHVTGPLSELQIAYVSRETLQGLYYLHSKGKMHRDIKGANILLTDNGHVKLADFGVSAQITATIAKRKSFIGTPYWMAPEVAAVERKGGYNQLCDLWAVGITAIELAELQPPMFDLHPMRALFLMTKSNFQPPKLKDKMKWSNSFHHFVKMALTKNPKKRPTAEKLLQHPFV

COc1cc2c(Nc3ccc(Cl)c(Cl)c3F)ncnc2cc1OC[C@@H]1C[C@@H]2CN(C)C[C@@H]2C1 [XL-647, N-(3,4-dichloro-2-fluorophenyl)-7-({[(3aR,5r,6aS)-2-methyloctahydrocyclopenta[c]pyrrol-5-yl]methyl}oxy)-6-(methyloxy)quinazolin-4-amine]
BUN (BALB/C mice; 7.5 mg/kg/day): 19.00 mg/dL
CT-CI (BALB/C mice; 7.5 mg/kg/day): 0
Creatinine (BALB/C mice; 7.5 mg/kg/day): 0.24 mg/dL
MUCA (BALB/C mice; 7.5 mg/kg/day): 1029 mOsmol
BUN (BALB/C mice; 15 mg/kg/day): 19.29 mg/dL
CT-CI (BALB/C mice; 15 mg/kg/day): 0
Creatinine (BALB/C mice; 15 mg/kg/day): 0.29 mg/dL
MUCA (BALB/C mice; 15 mg/kg/day): 1029 mOsmol
ATP-Competitive (EGFR): Yes
Ki (EGFR): 0.05 nM
Reversible (EGFR): Yes
IC50 [1]: 1800 nM
Inhibition, 10 μM XL-647 ([1]; 10 μM): 84.56%
inhibition at 10 µM (GABA-B): -1.19%
IC50 [2]: 2570 nM
Inhibition, 10 μM XL-647 ([2]; 10 μM): 97.91%
inhibition at 10 µM [3]: -5.38%
IC50 (Serotonin Transporter): 188 nM
inhibition at 10 µM (Serotonin Transporter; read-out: Inhibition, 10 μM XL-647): 101%
Inhibition, 10 μM XL-647 [4]: 46.77%
inhibition at 10 µM (Calcium Channel, Type N): 16.8%
inhibition at 10 µM [5]: 47.5%
Inhibition, 10 μM XL-647 [6]: −8.46%
IC50 (EMK): > 10 µM
IC50 (GSK3β): > 1000 nM
IC50 (MAP4K3): > 1000 nM
IC50 (EphB4): 3 nM
IC50 (ErbB2): 552 nM
phosphorylation of EGFR, immunoblot [7]: inhibits phosphorylation of EGFR
Single Dose Duration of Action (100 mg/kg, >50% inhibition) (p-Y-EGFR; A431 xenografts): >72 h
inhibition at 3 mg/kg (p-Y-EGFR; A-431, mouse, 3 mg/kg, dosed 3.5 hours before EGF): 41%
inhibition at 10 mg/kg (p-Y-EGFR; A-431, mouse, 10 mg/kg, dosed 3.5 hours before EGF): 70%
inhibition at 30 mg/kg (p-Y-EGFR; A-431, mouse, 30 mg/kg (plasma 4 μM), dosed 3.5 hours before EGF): 89%
inhibition at 100 mg/kg (p-Y-EGFR; A-431, mouse, 100 mg/kg, dosed 3.5 hours before EGF): 93%
IC50 (p-Y-EGFR; in vivo, A431 xenografts, PO, read-out: Estimated IC50 (plasma concentration)): 720 nM
protein bound [8]: 93-99%
dose proportionality of AUC and Cmax, in words [9]: generally increased in proportion with dose
IC50 (EGFR L861Q (pCMV/Lx-1)): 10 nM
